The values that follow come from ChEMBL document CHEMBL3091271, “Discovery of triazine mimetics as potent antileishmanial agents” (ACS Med Chem Lett, 2013).

Series [1] has as its system Leishmania donovani. The series can be described thus: Antileishmanial activity against amastigote stage of Leishmania donovani MHOM/IN/80/Dd8 infected in mouse J-774A.1 cells after 72 hrs by luciferase reporter gene assay. In kind it is functional, organism-based. The note with it: MHOM/IN/80/Dd8, J774.A1, 72 h.
Series [2] is described as follows: Cytotoxicity against African green monkey Vero cells assessed as cell viability after 72 hrs by MTT assay. In kind it is cell-based. The note with it: chlorocebus sabaeus.
Series [3] in a line: (§1) Selectivity index, ratio of CC50 to African green monkey Vero cells to IC50 for amastigote stage of Leishmania donovani MHOM/IN/80/Dd8. The class given is functional.
Series [4] concerns J774.A1. The series is described as follows: Immunostimulatory activity in Leishmania infected mouse J774A1 cells assessed as increase in nitric oxide production at IC50 measured at 24 hrs by sandwich ELISA relative to untreated infected cell. In kind it is functional.
In series [5] the test system is J774.A1. The series can be described thus: Immunostimulatory activity in Leishmania infected mouse J774A1 cells assessed as increase in nitric oxide production at IC50 measured at 48 hrs by sandwich ELISA. The class given is functional, cell-based.
Series [6] is described as follows: Immunostimulatory activity in Leishmania infected mouse J774A1 cells assessed as upregulation of IL-12 level at IC50 measured at 48 hrs by sandwich ELISA. In kind it is functional, cell-based. The note with it: J774.A1.
In series [7] the test system is J774.A1. The series can be described thus: Immunostimulatory activity in Leishmania infected mouse J774A1 cells assessed as downregulation of TGF-beta level at IC50 measured at 24 hrs by sandwich ELISA relative to untreated infected cell. The class given is functional.
Series [8] in a line: Immunostimulatory activity in Leishmania infected mouse J774A1 cells assessed as upregulation of IL-12 level at IC50 measured at 24 hrs by sandwich ELISA relative to untreated infected cell. In kind it is functional, cell-based. The note with it: J774.A1.
Series [9] can be described thus: Immunostimulatory activity in Leishmania infected mouse J774A1 cells assessed as upregulation of TNF-alpha level at IC50 measured at 24 hrs by sandwich ELISA relative to untreated infected cell. The class given is functional, cell-based. The note with it: J774.A1.
The next series has as its system Syrian golden hamster. The series can be described thus: Toxicity in golden hamster infected with amastigote stage of Leishmania donovani MHOM/IN/80/Dd8 assessed as appearance of abnormal behavior at 50 mg/kg/day, ip measured for 5 days. In kind it is organism-based, Mesocricetus auratus. Details: route intraperitoneal. The note with it: in vivo, 120 h.
For series [10], the system named is J774.A1. The series is described as follows: Immunostimulatory activity in Leishmania infected mouse J774A1 cells assessed as downregulation of TGF-beta level at IC50 measured at 48 hrs by sandwich ELISA. In kind it is functional, cell-based.
Series [11] in a line: Immunostimulatory activity in Leishmania infected mouse J774A1 cells assessed as upregulation of TNF-alpha level at IC50 measured at 48 hrs by sandwich ELISA. The note with it: J774.A1. The class given is functional, cell-based.
In series [12] the test system is J774.A1. The series is described as follows: Immunostimulatory activity in Leishmania infected mouse J774A1 cells assessed as downregulation of IL-10 level at IC50 measured at 48 hrs by sandwich ELISA. In kind it is functional, cell-based.
The subject of series [13] is Leishmania donovani. The series is described as follows: Antileishmanial activity against amastigote stage of Leishmania donovani MHOM/IN/80/Dd8 infected in golden hamster assessed as inhibition of parasite multiplication in splen at 50 mg/kg/day, ip administered for 5 days measured on day 7 by Giemsa staining relative to control. In kind it is functional. The note with it: MHOM/IN/80/Dd8, ip, route intraperitoneal.

The subject of series [14] is J774.A1. The series is described as follows: Immunostimulatory activity in Leishmania infected mouse J774A1 cells assessed as downregulation of IL-10 level at IC50 measured at 24 hrs by sandwich ELISA. In kind it is functional, cell-based.
The next series deals with Vero. The series is described as §1. In kind it is functional.

The source made the active and inactive calls. The rule behind the calls is not given here. Bounds are passed on as bounds.

Take `CCCNc1nc(Nc2ccccc2)nc(OCCCCNc2nc(Nc3ccccc3)nc(NC3CC3)n2)n1`: the IC50 in the series with Leishmania donovani [1] is 2.65 µM. For the same molecule, the 50% cytotoxic concentration (CC50) at 72 h in series [2] is over 400 µM. Moreover, the “Ratio CC50/IC50” value in series [3] is reported as over 150.94.
In the series on Leishmania donovani [1], `c1ccc(Nc2nc(NCCCCOc3nc(NCCN4CCOCC4)nc(Nc4ccccc4)n3)nc(NCCN3CCOCC3)n2)cc1` yielded a concentration for half-maximal inhibition (IC50) of 2.91 µM. In addition, the CC50 at 72 h in series [2] came to 115 µM. In addition, the “Ratio CC50/IC50” value in [3] was found to be 39.61.
The matching figures for `CCCCCNc1nc(NCCCCOc2nc(NCCCCC)nc(Nc3ccccc3)n2)nc(Nc2ccccc2)n1`: 6.46 µM, over 400 µM and over 61.92.
In the series with Leishmania donovani [1], `Clc1nc(NCCCCOc2nc(Cl)nc(Nc3ccccc3)n2)nc(Nc2ccccc2)n1` displayed a half-maximal inhibitory concentration (IC50) of 10.3 µM. Also, the CC50 at 72 h in [2] turned out to be 7.74 µM. The “Ratio CC50/IC50” value in series [3] came to 0.75.
In the series with Leishmania donovani [1], `N=C(N)c1ccc(OCCCCCOc2ccc(C(=N)N)cc2)cc1` [PENTAMIDINE] had a concentration for half-maximal inhibition (IC50) of 13.7 µM. Moreover, the CC50 at 72 h in series [2] is 85.9 µM. For the same molecule, in [3], the “Ratio CC50/IC50” value worked out at 6.27.
Take `CCCNc1nc(NCCCCOc2nc(NCCC)nc(Nc3ccccc3)n2)nc(Nc2ccccc2)n1`: the “fold change (FC)” value was 2 with J774.A1 [4], 1.8 with J774.A1 [7], 3 in series [8] and 2 in series [9]. In addition, in the series on Leishmania donovani [1], half-maximal inhibition (IC50) required 1.99 µM. Also, the result (in the series with J774.A1 [5]; in series [6]; with J774.A1 [10]; in series [11]; with J774.A1 [12]) was inactive. Moreover, in the series on Syrian golden hamster, the Activity result is given as “Non-toxic”. For the same molecule, the CC50 at 72 h in series [2] was 216 µM. In series [3], the “Ratio CC50/IC50” value is reported as 108.58. Moreover, in the series on Leishmania donovani [13], the inhibition in vivo at 50 mg/kg/day was found to be 74.4%. For the same molecule, in the series on J774.A1 [14], the result was Active.
On to `CN1CCN(c2nc(NCCCCOc3nc(Nc4ccccc4)nc(N4CCN(C)CC4)n3)nc(Nc3ccccc3)n2)CC1`, for which the midpoint of inhibition in the series on Leishmania donovani [1], the IC50, lay at 1.33 µM. In series [2], the CC50 at 72 h was found to be 20.1 µM. In addition, in [3], the “Ratio CC50/IC50” value is 15.08.
The molecule `c1ccc(Nc2nc(NCCCCOc3nc(Nc4ccccc4)nc(N4CCOCC4)n3)nc(N3CCOCC3)n2)cc1` showed an IC50 in the series with Leishmania donovani [1] of 3.15 µM. Also, the CC50 at 72 h in series [2] is 276 µM. Moreover, the “Ratio CC50/IC50” value in series [3] stood at 87.5.
The molecule `CCCNc1nc(NCCCCOc2nc(Nc3ccccc3)nc(NC3CC3)n2)nc(Nc2ccccc2)n1` had an IC50 with Leishmania donovani [1] of 8.26 µM. The CC50 at 72 h in series [2] stood at 18.2 µM. The “Ratio CC50/IC50” value in series [3] stood at 2.2.
Sodium stibogluconate: in the series on Vero, the Ratio CC50/IC50 worked out at 8.56.
Molecule `CCCCCCCCCCCCCCCCOP(=O)([O-])OCC[N+](C)(C)C` [MILTEFOSINE] had an IC50 in the series on Leishmania donovani [1] of 8.1 µM. Besides, the “Ratio CC50/IC50” value in series [3] was found to be 6.56.
Molecule `c1ccc(Nc2nc(NCCCCOc3nc(Nc4ccccc4)nc(NC4CC4)n3)nc(NC3CC3)n2)cc1` came in with an IC50 with Leishmania donovani [1] of over 40 µM.
As to `c1ccc(Nc2nc(NCCCCCOc3nc(Nc4ccccc4)nc(N4CCOCC4)n3)nc(N3CCOCC3)n2)cc1`, the IC50 in the series on Leishmania donovani [1] was over 40 µM.
`CCCNc1nc(NCCCCCOc2nc(NCCC)nc(Nc3ccccc3)n2)nc(Nc2ccccc2)n1` had an IC50 in the series on Leishmania donovani [1] of over 40 µM.
`CCCCNc1nc(NCCCCOc2nc(NCCCC)nc(Nc3ccccc3)n2)nc(Nc2ccccc2)n1` registered a 50% inhibitory concentration (IC50) in the series with Leishmania donovani [1] of 3.21 µM. Moreover, in series [2], the CC50 at 72 h was over 400 µM. For the same molecule, the “Ratio CC50/IC50” value in series [3] was over 124.61.
The matching figures for `c1ccc(Nc2nc(NCCCCOc3nc(Nc4ccccc4)nc(N4CCCc5ccccc54)n3)nc(N3CCCc4ccccc43)n2)cc1`: 8.98 µM, 17.1 µM and 1.9.
Consider `Clc1nc(NCCCCCOc2nc(Cl)nc(Nc3ccccc3)n2)nc(Nc2ccccc2)n1`, for which the IC50 in the series on Leishmania donovani [1] was found to be 8.98 µM. Besides, in series [2], the CC50 at 72 h amounted to 17.1 µM. For the same molecule, the “Ratio CC50/IC50” value in [3] was found to be 1.9.
The matching figures for `CCN1CCN(c2nc(NCCCCOc3nc(Nc4ccccc4)nc(N4CCN(CC)CC4)n3)nc(Nc3ccccc3)n2)CC1`: 0.86 µM, 16.2 µM and 18.87.
In turn, `c1ccc(Nc2nc(NCCCCOc3nc(Nc4ccccc4)nc(N4CCc5ccccc5C4)n3)nc(N3CCc4ccccc4C3)n2)cc1` returned an IC50 with Leishmania donovani [1] of 7.52 µM. Further, the CC50 at 72 h in [2] is over 400 µM. For the same molecule, in series [3], the “Ratio CC50/IC50” value is on record as over 53.19.
`CC(C)(C)Nc1nc(NCCCCOc2nc(Nc3ccccc3)nc(NC(C)(C)C)n2)nc(Nc2ccccc2)n1` displayed an IC50 in the series on Leishmania donovani [1] of 0.77 µM. Also, the Activity result in the series on Syrian golden hamster was “Non-toxic”. Besides, the CC50 at 72 h in series [2] was found to be 198 µM. In addition, the “Ratio CC50/IC50” value in series [3] amounted to 257.48. Besides, the inhibition in vivo at 50 mg/kg/day in the series with Leishmania donovani [13] was determined as 62.6%.
The molecule `c1ccc(Nc2nc(NCCCCOc3nc(NCCCN4CCOCC4)nc(Nc4ccccc4)n3)nc(NCCCN3CCOCC3)n2)cc1` registered an IC50 with Leishmania donovani [1] of 1.7 µM. Also, the CC50 at 72 h in series [2] was 13.8 µM. Also, the “Ratio CC50/IC50” value in series [3] came to 8.11.
As to `CC(C)Nc1nc(NCCCCOc2nc(Nc3ccccc3)nc(NC(C)C)n2)nc(Nc2ccccc2)n1`, in the series with Leishmania donovani [1], it took 3.51 µM to reach half-maximal inhibition (IC50). The CC50 at 72 h in [2] is over 400 µM. Moreover, the “Ratio CC50/IC50” value in series [3] is reported as over 113.96.
